Reference: the supplement of paper PMC11451515

What was measured:
Experiment in all cases: AUC of viability dose-response curve (% viability x log10 dose units); higher = less sensitive
Settings in all cases: 48 h
NOMO1 = system: NOMO1
Procedure, shortened: (§1)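 Area under the curve was integrated by trapezoidal rule from a log-logistic fit of normalised viability, with curves exceeding full viability scaled and quality-control failures removed. The fit had four parameters over log10 doses. Viability came from CellTiter-Glo One luminescence, normalised per plate to DMSO and cell-free wells, after leukemia cells adapted to each medium (500 or 1000 cells/well, 1536-well plates) were exposed to library compounds in DMSO for 48 h at 37°C. The 11 threefold doses ran from 47 μM to 0.79 nM.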

P12-Ichikawa = system: P12-Ichikawa
Procedure, shortened: as §1

SEM cells = system: SEM cells
Procedure, shortened: as §1

[1] = RPMI 5 mM glucose + 10% dialyzed FBS

SMILES | AUC of viability dose-response curve (NOMO1; HPLM + 10% dialyzed FBS) | AUC of viability dose-response curve (NOMO1; RPMI 5 mM glucose + 10% FBS) | AUC of viability dose-response curve (NOMO1; [1]) | AUC of viability dose-response curve (P12-Ichikawa; HPLM + 10% dialyzed FBS) | AUC of viability dose-response curve (P12-Ichikawa; RPMI 5 mM glucose + 10% FBS) | AUC of viability dose-response curve (P12-Ichikawa; [1]) | AUC of viability dose-response curve (SEM cells; HPLM + 10% dialyzed FBS) | AUC of viability dose-response curve (SEM cells; RPMI 5 mM glucose + 10% FBS) | AUC of viability dose-response curve (SEM cells; [1])
CCCCc1oc2ccccc2c1C(=O)c1cc(I)c(OCCN(CC)CC)c(I)c1 | 442 | 450 | 457 | 451 | 448 | 463 | 458 | 465 | 454
CC1CCN(c2cc(N3CCN(C)CC3)ccc2NC(=O)c2cc(C#N)c[nH]2)CC1 | 457 | 463 | 454 | 450 | 453 | 453 | 456 | 444 | 451
CC(=O)O/N=C1/C(=C2\C(=O)Nc3cc(Br)ccc32)Nc2ccccc21 | 431 | 450 | 443 | 439 | 443 | 437 | 324 | 317 | 308
